Broadly, the IC50 is the concentration needed to halve the response being measured.

The structures appear in SMILES notation.

Sequence of Serine/threonine-protein kinase ATR (Q13535 whole entry): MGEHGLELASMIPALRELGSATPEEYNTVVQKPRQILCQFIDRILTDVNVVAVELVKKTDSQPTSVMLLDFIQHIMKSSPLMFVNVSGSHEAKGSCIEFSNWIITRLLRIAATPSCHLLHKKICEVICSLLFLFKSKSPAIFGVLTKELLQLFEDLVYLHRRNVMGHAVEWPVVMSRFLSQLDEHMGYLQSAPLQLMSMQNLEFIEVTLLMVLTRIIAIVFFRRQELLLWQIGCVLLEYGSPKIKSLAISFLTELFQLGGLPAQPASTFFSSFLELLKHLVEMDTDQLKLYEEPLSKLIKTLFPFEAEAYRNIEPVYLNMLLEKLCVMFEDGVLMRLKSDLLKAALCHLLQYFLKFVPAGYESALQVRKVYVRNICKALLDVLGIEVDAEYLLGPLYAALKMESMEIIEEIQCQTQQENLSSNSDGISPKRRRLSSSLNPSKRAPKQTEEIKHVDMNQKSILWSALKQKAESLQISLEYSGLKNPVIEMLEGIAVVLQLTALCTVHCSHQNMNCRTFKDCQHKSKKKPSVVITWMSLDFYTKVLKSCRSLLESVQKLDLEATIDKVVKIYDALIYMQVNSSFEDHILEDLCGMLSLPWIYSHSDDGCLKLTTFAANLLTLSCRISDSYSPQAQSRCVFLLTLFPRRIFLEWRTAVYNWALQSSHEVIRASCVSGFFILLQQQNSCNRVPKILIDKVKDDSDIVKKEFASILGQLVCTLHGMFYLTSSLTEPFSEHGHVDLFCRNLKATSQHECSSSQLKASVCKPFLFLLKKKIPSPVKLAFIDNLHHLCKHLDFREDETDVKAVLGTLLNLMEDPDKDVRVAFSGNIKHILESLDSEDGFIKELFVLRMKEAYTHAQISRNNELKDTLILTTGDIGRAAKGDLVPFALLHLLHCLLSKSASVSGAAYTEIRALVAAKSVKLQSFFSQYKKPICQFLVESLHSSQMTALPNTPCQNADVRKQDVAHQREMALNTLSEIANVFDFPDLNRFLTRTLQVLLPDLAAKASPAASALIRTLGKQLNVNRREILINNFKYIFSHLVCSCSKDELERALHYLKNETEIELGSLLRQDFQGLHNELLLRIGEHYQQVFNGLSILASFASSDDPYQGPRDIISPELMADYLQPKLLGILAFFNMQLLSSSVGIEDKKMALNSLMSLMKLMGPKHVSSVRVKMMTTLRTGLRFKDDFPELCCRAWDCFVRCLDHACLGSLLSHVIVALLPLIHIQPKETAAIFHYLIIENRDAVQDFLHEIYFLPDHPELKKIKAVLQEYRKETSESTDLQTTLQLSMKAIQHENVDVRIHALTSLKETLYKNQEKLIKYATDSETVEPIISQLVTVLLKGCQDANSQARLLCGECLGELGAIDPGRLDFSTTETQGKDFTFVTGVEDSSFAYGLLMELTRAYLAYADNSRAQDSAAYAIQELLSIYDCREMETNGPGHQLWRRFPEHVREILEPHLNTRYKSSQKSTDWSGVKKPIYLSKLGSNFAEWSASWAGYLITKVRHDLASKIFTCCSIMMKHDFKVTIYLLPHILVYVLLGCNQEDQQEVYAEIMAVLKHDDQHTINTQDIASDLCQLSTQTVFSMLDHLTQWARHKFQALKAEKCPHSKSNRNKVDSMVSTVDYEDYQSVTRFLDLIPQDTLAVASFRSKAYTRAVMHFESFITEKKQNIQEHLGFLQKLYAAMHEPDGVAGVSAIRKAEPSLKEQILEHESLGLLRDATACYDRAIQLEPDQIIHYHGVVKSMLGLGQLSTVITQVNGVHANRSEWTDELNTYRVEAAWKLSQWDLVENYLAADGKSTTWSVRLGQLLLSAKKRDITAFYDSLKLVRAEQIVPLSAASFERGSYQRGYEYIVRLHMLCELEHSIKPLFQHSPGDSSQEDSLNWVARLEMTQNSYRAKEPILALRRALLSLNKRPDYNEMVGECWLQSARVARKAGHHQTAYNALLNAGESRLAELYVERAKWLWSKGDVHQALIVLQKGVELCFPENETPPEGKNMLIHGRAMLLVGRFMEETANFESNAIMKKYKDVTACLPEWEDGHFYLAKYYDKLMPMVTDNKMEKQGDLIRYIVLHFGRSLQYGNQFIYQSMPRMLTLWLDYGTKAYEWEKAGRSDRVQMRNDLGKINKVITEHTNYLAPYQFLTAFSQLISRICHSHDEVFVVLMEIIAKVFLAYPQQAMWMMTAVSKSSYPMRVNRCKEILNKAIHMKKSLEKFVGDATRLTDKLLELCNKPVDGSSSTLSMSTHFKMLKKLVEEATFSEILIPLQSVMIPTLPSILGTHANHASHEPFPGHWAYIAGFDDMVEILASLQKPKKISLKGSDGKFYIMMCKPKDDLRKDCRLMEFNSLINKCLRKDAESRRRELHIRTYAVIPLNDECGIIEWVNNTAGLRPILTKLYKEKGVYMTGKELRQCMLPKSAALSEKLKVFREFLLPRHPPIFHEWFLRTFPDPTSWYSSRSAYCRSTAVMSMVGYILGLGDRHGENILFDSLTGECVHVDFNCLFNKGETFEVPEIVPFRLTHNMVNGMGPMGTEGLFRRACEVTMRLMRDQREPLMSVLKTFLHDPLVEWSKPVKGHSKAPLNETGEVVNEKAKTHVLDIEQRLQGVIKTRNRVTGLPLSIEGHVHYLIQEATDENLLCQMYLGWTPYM

This assay concerns the target Serine/threonine-protein kinase ATR (Homo sapiens, UniProt Q13535). Nature of the assay: ATR Enzyme Activity Inhibition Assay. The protocol: Prepare various buffer systems required for the experiment:1. […] Prepare detection buffer: Dilute each of the anti-phospho-p53-Eu cryptate (Cisbio, Cat #61P08KA) and anti-GST-d2 (Cisbio, Cat #61GSTDLB) to 1 unit using HTRF detection buffer (Cisbio, Cat #62SDBRDF).Powdered compounds were dissolved in DMSO to from a stock solution at a concentration of 10 mM. The solution of compounds to be tested at a concentration of […] was performed a 3-fold dilution for 10 concentrations with DMSO. […] 5 μL of ATR was added to each well accordingly. Each well is incubated at 25° C. for 10 min, added with 5 μL of reaction substrate, incubated at 25° C. for 90 min and added with 10 μL of detection solution.
In turn, `CC(C)S(=O)(=O)c1ccc(-c2cnc(N)c(-c3cc(-c4ccc(CNC(N)=O)cc4)no3)n2)cc1` [US20250026742, Example 9] had an IC50 of 1.83 nM.
In the case of `CN=S(C)(=O)c1ccc(-c2cnc(N)c(-c3cc(-c4ccc(CNC(=N)N)cc4)no3)n2)cc1` (stereo not drawn) [US20250026742, Example 12] it was 2.53 nM; in that of `CC(=N)Nc1ccc(-c2cc(-c3nc(-c4ccc(S(=O)(=O)C(C)C)cc4)cnc3N)on2)cc1` [US20250026742, Example 29], 3.12 nM.

(Values after BindingDB's records for patent US20250026742 (Suzhou Ark Biopharmaceutical Co., 2025).)
